{
  "source": "patent US20070281302A1",
  "about": "(priority 1998, published 2007)",
  "key": {"B. cereus T spores": {"test_system": "B. cereus T spores", "format": "binding, Bacillus cereus"}, "[1]": {"test_system": "B. anthracis spores (Sterne, delta-Ames)", "format": "binding, Bacillus anthracis"}, "spores of B. cereus T": {"test_system": "spores of B. cereus T", "format": "binding, Bacillus cereus"}, "[2]": {"test_system": "spores of B. thuringiensis subsp. kurstaki", "format": "binding, Bacillus thuringiensis"}, "[3]": {"test_system": "B. thuringiensis subsp. kurstaki spores", "format": "binding, Bacillus thuringiensis"}, "[4]": {"test_system": "B. anthracis (Sterne and ΔAmes) spores", "format": "binding, Bacillus anthracis"}, "[5]": {"test_system": "spores of the other Bacillus strains", "format": "binding"}, "[6]": {"test_system": "spores of 15 of the other Bacillus strains", "format": "binding"}, "[7]": {"test_system": "Bacillus spores of each experiment shown in FIG. 3", "format": "binding"}, "B. cereus T spore": {"test_system": "B. cereus T spore", "format": "binding, Bacillus cereus"}, "spores of B. subtilis": {"test_system": "spores of B. subtilis", "format": "binding, Bacillus subtilis"}, "B. subtilis spores": {"test_system": "B. subtilis spores", "format": "binding, Bacillus subtilis"}, "[8]": {"test_system": "B. anthracis spores (delta-Ames, Sterne)", "format": "binding, Bacillus anthracis"}, "[9]": {"test_system": "vegetative cells of the Sterne and ΔAmes strains", "format": "binding, Bacillus anthracis"}, "spores of B. cerues T": {"test_system": "spores of B. cerues T", "format": "binding, Bacillus cereus"}},
  "note": "“Also recorded” adds a separate entry of the source. No end group written: not given here.",
  "data": [
    {"substance": "ATYPLPIRGGGC-PE (PE conjugate)", "values": [
      {"measurement": "binding of the conjugate to spores", "setting": "B. cereus T spores", "result": "limited binding"},
      {"measurement": "binding relative to TYPLPIRGGGC-PE", "setting": "B. cereus T spores", "result": "only slightly enhanced"},
      {"measurement": "fluorescent labeling of spores", "setting": "[1]", "result": "completely encircled by fluorescent ligand; also recorded: readily detectable"},
      {"measurement": "fluorescent labeling of spores", "setting": "spores of B. cereus T", "result": "low-level but detectable binding"},
      {"measurement": "fluorescent labeling of spores", "setting": "[2]", "result": "low-level but detectable binding"},
      {"measurement": "binding of the conjugate to spores", "setting": "[3]", "result": "limited binding"},
      {"measurement": "binding relative to TYPLPIRGGGC-PE", "setting": "[3]", "result": "only slightly enhanced"},
      {"measurement": "binding of the conjugate to spores", "setting": "[4]", "result": "extensive binding"},
      {"measurement": "enhancement of binding relative to TYPLPIRGGGC-PE", "setting": "[4]", "result": "~10", "unit": "fold"},
      {"measurement": "fluorescent labeling of spores", "setting": "[5]", "result": "not other strains; also recorded: essentially nonfluorescent"},
      {"measurement": "binding of the conjugate to spores", "setting": "[6]", "result": "did not permit detectable binding; also recorded: No peptide-conjugate binding was observed"}
    ]},
    {"substance": "HWHHHGHGGGC (also: PE conjugate) [HWHHHGHGGGC-PE]", "values": [
      {"measurement": "spore binding of control peptide-PE conjugates", "setting": "[7]", "result": "No significant binding"}
    ]},
    {"substance": "ILPRPYTGGGC (also: PE conjugate) [ILPRPYTGGGC-PE]", "values": [
      {"measurement": "spore binding of control peptide-PE conjugates", "setting": "[7]", "result": "No significant binding"}
    ]},
    {"substance": "LLSPLHR [Sequence 6 (Table 5)]", "values": [
      {"measurement": "number of phage containing the sequence", "setting": "B. cereus T spore", "result": "6. (2)"}
    ]},
    {"substance": "NHFL (B. subtilis)", "values": [
      {"measurement": "binding to the spores (ligand quality)", "setting": "spores of B. subtilis", "result": "poor ligand"}
    ]},
    {"substance": "NHFLP (B. subtilis)", "values": [
      {"measurement": "binding to the spores (ligand quality)", "setting": "spores of B. subtilis", "result": "tight binding"}
    ]},
    {"substance": "NHFLPKV [Isolate 4 (Table 1)]", "values": [
      {"measurement": "binding of the peptide to the spore", "setting": "B. subtilis spores", "result": "bound tightly"},
      {"measurement": "eluted phage examined that contained the sequence", "setting": "B. subtilis spores", "result": "Seven of the ten"},
      {"measurement": "enrichment of this phage", "setting": "B. subtilis spores", "result": 700, "unit": "fold"}
    ]},
    {"substance": "SLLPGLPGGGC-PE (PE conjugate)", "values": [
      {"measurement": "binding of the conjugate to spores", "setting": "B. cereus T spores", "result": "extensive binding"},
      {"measurement": "binding of the conjugate to spores", "setting": "[3]", "result": "extensive binding"},
      {"measurement": "binding of the conjugate to spores", "setting": "[4]", "result": "no binding"},
      {"measurement": "binding of the conjugate to spores", "setting": "[6]", "result": "No peptide-conjugate binding was observed"}
    ]},
    {"substance": "THRLPSR [Sequence 1 (Table 5)]", "values": [
      {"measurement": "number of phage containing the sequence", "setting": "B. cereus T spore", "result": "1. (2)"}
    ]},
    {"substance": "TYPIPFR [Isolate 6 (Table 3)]", "values": [
      {"measurement": "number of phage containing the sequence", "setting": "[8]", "result": "three"}
    ]},
    {"substance": "TYPIPIR [Isolate 5 (Table 3)]", "values": [
      {"measurement": "number of phage containing the sequence", "setting": "[8]", "result": "three"}
    ]},
    {"substance": "TYPLPIRGGGC-PE (PE conjugate)", "values": [
      {"measurement": "binding of the peptide-PE conjugate to spores, compared with B. anthracis spores", "setting": "B. cereus T spores", "result": "weaker (or less extensive)"},
      {"measurement": "binding of the peptide-PE conjugate to spores, compared with B. anthracis spores", "setting": "[3]", "result": "weaker (or less extensive)"},
      {"measurement": "binding of the peptide-PE conjugate to spores", "setting": "[4]", "result": "concentration-dependent binding"},
      {"measurement": "effect of bovine serum albumin on conjugate binding", "setting": "[4]", "result": "not inhibited"},
      {"measurement": "binding to vegetative cells", "setting": "[9]", "result": "did not bind"},
      {"measurement": "binding of the peptide-PE conjugate to spores", "setting": "[6]", "result": "did not bind"},
      {"measurement": "binding of the peptide-PE conjugate to spores at the highest concentration", "setting": "[6]", "result": "minimal binding"}
    ]},
    {"substance": "TYPVPHR [Isolate 9 (Table 3)]", "values": [
      {"measurement": "number of phage containing the sequence", "setting": "[8]", "result": "once"}
    ]},
    {"substance": "WSPLHKH [Sequence 8 (Table 5)]", "values": [
      {"measurement": "binding to spores", "setting": "spores of B. cerues T", "result": "tight binding"},
      {"measurement": "eluted phage that contained the sequence", "setting": "spores of B. cerues T", "result": "Six of the twenty"},
      {"measurement": "enrichment of this phage", "setting": "spores of B. cerues T", "result": 300, "unit": "fold"}
    ]}
  ]
}
